We go through 20 compounds from PMC6272605, “Development and Validation of a Docking-Based Virtual Screening Platform for the Identification of New Lactate Dehydrogenase Inhibitors” (Molecules, 2015).

Usually IC50 stands for the concentration needed to halve the response being measured.

The test system of one assay is LDH. Also noted: method as in earlier work. The conditions noted are these: Table S1, active compounds included in the enriched dataset; LDH inhibitors binding the open conformation in the presence of NADH; cited from earlier work.
Assay [1] concerns the target T1, purified human lactate dehydrogenase isoform 5 (hLDH5) (Homo sapiens, UniProt P00338).
T1 construct: purchased Lee Biosolution, Inc., St. Louis, MO, USA
As to the kind of experiment: hLDH5 inhibition assay (pyruvate→lactate, NADH fluorescence). It counts as biochemical. The conditions noted are these: 200 μM pyruvate, 40 μM NADH, phosphate buffer pH 7.4, 15 min incubation. As to the method:
LDH assays: The LDH inhibition properties of the selected compounds were evaluated against purified human lactate dehydrogenase isoform 5 (Lee Biosolution, Inc., St. Louis, MO, USA). The “forward” direction (pyruvate→lactate) of the lactate dehydrogenase reaction was conducted, and the kinetic parameters were measured by fluorescence (emission wavelength at 460 nm, excitation wavelength at 340 nm) to monitor the amount of consumed NADH. Assays were carried out in wells containing 200 μL of a reagent solution dissolved in 100 mM phosphate buffer (pH = 7.4). For the IC50 calculations of the compounds, seven different concentrations (in duplicate for each concentration) of the isolated compounds were used to produce the concentration-response curve. All of the compounds were tested in the presence of 200 μM pyruvate and 40 μM NADH. Any background fluorescence likelihood of the tested samples, or NADH fluorescence quenching, was subtracted. In addition to the sample test wells, maximum and minimum controls were also included in each plate. After 15 min of incubation, the final measurements were carried out by using a Victor X3 Microplates Reader (PerkinElmer®). IC50 values were produced using GraphPad Prism software.

For the compound `C[C@@H](Nc1nc(-c2cc(C(=O)O)ccc2Cl)cnc1N)c1ccccc1` [Compound 3], the IC50 in the assay with LDH is 0.48 µM. Turning to `O=C(O)CN1CC(c2ccccc2)OC1=O` (centres unmarked) [VS3, 2-(2-Oxo-5-phenyloxazolidin-3-yl)acetic acid], the IC50 in assay [1] was > 500 µM.

Regarding `NCC(O)c1ccccc1` (centres unmarked) [Compound 8], the IC50 in the assay with LDH is 4 µM. As for `O=C1NCC(c2ccccc2)O1` (centres unmarked) [Compound 9], the IC50 with LDH was 14 µM. Consider `Cc1ccc(S(=O)(=O)Nc2ccc(C(=O)O)cc2)cc1` [VS2, 4-(4-Methylphenylsulfonamido)benzoic acid], for which, in assay [1], the IC50 is > 500 µM. In the case of `Nc1ccc(C(=O)O)cc1` [Compound 4], the half-maximal inhibitory concentration (IC50) in the assay with LDH is 0.75 µM. Regarding `Cc1ccc(C(N)C(=O)O)cc1` (centres unmarked) [VS10], the IC50 in assay [1] was > 500 µM. With `COC(=O)c1ccc(NS(=O)(=O)c2ccc(C)cc2)cc1` [Compound 7], the 50% inhibitory concentration (IC50) with LDH is 7.4 µM. Take `COC(=O)C(NC(=O)c1cc([N+](=O)[O-])cc([N+](=O)[O-])c1)c1ccccc1` (centres unmarked) [VS8]: in assay [1], half-maximal inhibition (IC50) required 269 ± 58.1 µM. On the same count and under the same terms, the figure for `CC(C)C(NC(=O)OCc1ccccc1)C(=O)Nc1ccccc1` (centres unmarked) [VS6] is 246 ± 10.8 µM. On the same count and under the same terms, under `O=C(O)c1cc2c(C(F)(F)F)cc(-c3ccccc3)cc2n1O` [NHI-1] stands 51.7 ± 4.2 µM. Regarding `COC(=O)c1ccc(NCCO)cc1` [Compound 6], the IC50 in the assay on LDH is 0.65 µM. On to `CC(C)(C)OC(=O)CN1CC(c2ccccc2)OC1=O` (centres unmarked) [Compound 10], for which, in the assay on LDH, the concentration for half-maximal inhibition (IC50) was 10 µM. Regarding `COC(=O)c1ccc(N)cc1` [Compound 5], the IC50 in the assay on LDH was 0.71 µM. `Cc1ccc(C)c(C(O)C(=O)O)c1` (centres unmarked) [VS5]: the IC50 in assay [1] is > 500 µM. Same read-out and setting: under `O=C(O)CCCC(=O)Nc1ccccc1` [VS4] stands > 500 µM; under `O=C(O)CCC(=O)c1ccc(F)cc1` [VS7], > 500 µM. On to `Cc1nc2ccc(NC(=O)CCNC(=O)CCCc3ccc(CC(C(=O)O)C(=O)O)cc3)cc2s1` [Compound 2], for which, in the assay on LDH, the 50% inhibitory concentration (IC50) was 12.1 µM. In the case of `O=C(O)c1ccc(NCCO)cc1` [VS1, 4-((2-Hydroxyethyl)amino)benzoic acid], in assay [1], the IC50 was > 500 µM. Turning to `O=c1cc2oc(O)c3cc(O)c(O)c(O)c3c-2oc1=O` [galloflavin], the IC50 in assay [1] came to 91.7 ± 10.7 µM.
